pKd, pKi: −log10 of the molar value. Values after ≈ are worked out from the molar mass of the structure shown. Read-outs that look alike come from different tables or passages of the source.

The conditions of series [1]: shake-flask; data for previously reported analogs of 1 and 2; cited from earlier work.
Series [2] can be described thus: aqueous solubility, shake-flask procedure. The series is classed as physicochemical. To be noted: aqueous buffer, thermodynamic from solid, Britton-Robinson buffer pH 6.5, read-out: Aqueous Solubility S. The procedure:
For the assaying, inhibition constants Ki were determined as before using 4-hydroxyphenylpyruvic acid (HPP) as the substrate (Cisneros, et al., 2016, Bioorg. Med. Chem. Lett. 26:2764-2767). Inhibitory activity is monitored by measuring formation of the borate complex of the enol product at 305 nm using a Tecan Infinite F500 plate reader. Binding constants Kd were also obtained for the new compounds using a fluorescence polarization assay (Cisneros, et al., 2016, J. Am. Chem. Soc. 138:8630-8638). […] Saturated solutions in Britton-Robinson buffer (pH 6.5) are filtered (Acrodisc syringe, 0.2 μm pore) and analyzed by UV-vis spectroscopy (Agilent 8453).

The target of series [3] is T1, MIF (Homo sapiens, UniProt P14174).
T1 construct: made in house
T1 sequence (P14174 2-115 limits assumed): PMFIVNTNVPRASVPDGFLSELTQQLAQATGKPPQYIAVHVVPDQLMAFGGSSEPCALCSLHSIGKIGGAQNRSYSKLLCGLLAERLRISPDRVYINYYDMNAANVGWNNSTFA
Briefly: MIF tautomerase inhibition assay with 4-hydroxyphenylpyruvic acid (HPP) as substrate. The series is classed as biochemical.

Series [4] addresses T1, MIF. Kind of series: fluorescence polarization binding assay. (In general: Polarisation of emitted light reports the rotation of a fluorescent probe.)

For the compound `OCCOc1ccc2nc(-c3cn(-c4ccc(O)cc4)nn3)ccc2c1` [Compound 1b], in series [1], the “Aqueous Solubility S” value was 2.6 µg/mL.

As for `NCCOc1ccc2nc(-c3cn(-c4ccc(O)cc4)nn3)ccc2c1` [Compound 1c], in series [1], the “Aqueous Solubility S” value is 3.7 µg/mL.

On to `O=C(O)COc1ccc2nc(-c3cn(-c4ccc(O)cc4)nn3)ccc2c1` [Compound 1f], for which the “Aqueous Solubility S” value in series [1] is 365 µg/mL. For `O=C(O)COc1ccc2nc(-c3cn(-c4ccc(O)c(F)c4)nn3)ccc2c1` [Compound 2c], the “Aqueous Solubility S” value in series [1] is 37.0 µg/mL. The solubility is the dissolved amount per volume that the medium holds. With `O=C(O)Cn1ccc2ccc(-c3cn(-c4ccc(O)c(F)c4)nn3)nc2c1=O` [Compound 4b, 2-(2-(1-(3-fluoro-4-hydroxyphenyl)-1H-1,2,3-triazol-4-yl)-8-oxo-1,7-naphthyridin-7(8H)-yl)acetic acid], the solubility in series [2] worked out at 288 µg/mL (≈ 755 µM). In general, pKi refers to the Ki on a negative log10 scale, so that one unit is a factor of ten. A word on the pKd: it is −log10 of the Kd, conventionally taken in molar units. Take “methyl 3-(4-hydroxyphenyl)-4,5-dihydroisoxazole-5-carboxylate [ISO-1]”: the pKi is 4.52 on MIF [3] (HPP substrate, new naphthyridinones and ISO-1, read-out: Experimental Inhibition Constants Ki); 4.41 to 4.68 at MIF [3] (spread of nine measurements, read-out: Ki, results of repeated measurements). Moreover, the negative-log Kd (pKd) on MIF [4] (fluorescence polarization, new compounds and ISO-1, read-out: Binding Constants Kd) was 4.64; on MIF [4] (spread of four measurements, read-out: Kd, results of repeated measurements), 4.52 to 4.70.
